In ChEMBL document CHEMBL1201862, “PubChem BioAssay data set” (2004):
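Five concentrations, 48 hours, 96-well plates. Abbreviation: GI50, concentration required for 50% inhibition of growth.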 Calls of active or inactive are those of the source. No stated cut-off is given here; in the data, active = GI50 up to about 1.1 µM and inactive = higher.

What was measured:
Assay in all cases: NCI-60 cell line screen, 48 h
SR = system: SR
M14 = system: M14
SK-MEL-2 = system: SK-MEL-2
TK-10 = system: TK-10
RXF 393 = system: RXF 393
OVCAR-5 = system: OVCAR-5
SNB-19 = system: SNB-19
HOP-92 = system: HOP-92
KM12 = system: KM12
786-0 = system: 786-0
SN12C = system: SN12C
A549 = system: A549
ACHN = system: ACHN
RPMI-8226 = system: RPMI-8226
MDA-N = system: MDA-N
SK-MEL-5 = system: SK-MEL-5
PC-3 = system: PC-3
MCF7 = system: MCF7
LOX IMVI = system: LOX IMVI

Measured: GI50

O=c1[nH]c2nc[nH]c2c(=O)n1C1CCCCC1
inactive: SR > 100 µM | M14 > 100 µM | SK-MEL-2 72.9 µM | TK-10 > 100 µM | RXF 393 > 100 µM | OVCAR-5 > 100 µM | SNB-19 > 100 µM | HOP-92 > 100 µM | KM12 > 100 µM | 786-0 > 100 µM | SN12C > 100 µM | A549 > 100 µM | ACHN > 100 µM | RPMI-8226 > 100 µM | MDA-N > 100 µM | SK-MEL-5 > 100 µM | PC-3 > 100 µM | MCF7 > 100 µM

COc1ccc(/C(=N/O)c2ccccc2-c2nc3ccccc3c(=O)n2-c2ccc(S(=O)(=O)Nc3ncccn3)cc2)cc1C
inactive: SR 15.3 µM | M14 17.1 µM | TK-10 21.8 µM | RXF 393 11.1 µM | OVCAR-5 24.5 µM | SNB-19 20.8 µM | HOP-92 8.73 µM | KM12 18.1 µM | 786-0 > 10 µM | LOX IMVI > 10 µM | SN12C > 30.2 µM | A549 17.4 µM | ACHN 14.4 µM | RPMI-8226 14.6 µM | MDA-N 18.3 µM | SK-MEL-5 12.8 µM | PC-3 19.7 µM | MCF7 13.2 µM

CCNc1cc2c3c(c1)CCN3CCC2
inactive: SR 5.32 µM | M14 > 10 µM | SK-MEL-2 > 10 µM | TK-10 > 10 µM | RXF 393 > 10 µM | SNB-19 > 10 µM | HOP-92 > 10 µM | KM12 5.6 µM | 786-0 > 10 µM | LOX IMVI > 10 µM | SN12C > 10 µM | A549 > 10 µM | ACHN > 10 µM | RPMI-8226 3.51 µM | MDA-N > 10 µM | SK-MEL-5 > 10 µM | PC-3 > 10 µM | MCF7 > 10 µM

CCCC(O)c1cn(C(NC(=O)c2ccccc2)P(=O)(OCC)OCC)nn1 (configuration not stated)
inactive: SR > 100 µM | M14 > 100 µM | SK-MEL-2 > 100 µM | TK-10 > 100 µM | RXF 393 > 100 µM | SNB-19 > 100 µM | HOP-92 > 100 µM | KM12 > 100 µM | 786-0 > 100 µM | LOX IMVI > 100 µM | SN12C > 100 µM | A549 > 100 µM | ACHN > 100 µM | RPMI-8226 > 100 µM | MDA-N > 100 µM | SK-MEL-5 > 100 µM | PC-3 > 100 µM | MCF7 > 100 µM

CC(=O)O[C@H]1CC[C@@]2(C)C(=CC[C@@H]3[C@@H]2CC[C@]2(C)c4c(C)nn(-c5ccccc5)c4C[C@@H]32)C1
inactive: SR 13 µM | M14 53.8 µM | TK-10 22.8 µM | RXF 393 5.42 µM | OVCAR-5 22.2 µM | SNB-19 31 µM | HOP-92 22.2 µM | KM12 23 µM | 786-0 13.6 µM | LOX IMVI 12.3 µM | SN12C 33.3 µM | A549 35.9 µM | ACHN 19.5 µM | MDA-N 23.1 µM | SK-MEL-5 37.2 µM | PC-3 26.7 µM | MCF7 32.8 µM

CC(C)(C)C(=O)CC1(O)C=C(O)C(O)(CC(=O)C(C)(C)C)O1 (configuration not stated)
inactive: SR 4.55 µM | M14 15.8 µM | SK-MEL-2 38.7 µM | TK-10 82.2 µM | RXF 393 1.84 µM | OVCAR-5 > 100 µM | SNB-19 36.8 µM | HOP-92 29.9 µM | KM12 63.5 µM | 786-0 4.86 µM | LOX IMVI 12.5 µM | SN12C 14.7 µM | A549 61.7 µM | RPMI-8226 19.7 µM | MDA-N 43.2 µM | SK-MEL-5 21.2 µM | PC-3 44.8 µM | MCF7 24.8 µM

COc1ccc(/N=N/C(=N\c2ccccc2)c2ccc(N(CCC#N)CCC#N)cc2)cc1
inactive: SR 25.9 µM | M14 69.8 µM | SK-MEL-2 30.3 µM | TK-10 61.1 µM | RXF 393 19.9 µM | OVCAR-5 > 100 µM | SNB-19 > 100 µM | HOP-92 > 100 µM | KM12 26 µM | 786-0 60.4 µM | SN12C 88.9 µM | A549 49.2 µM | ACHN > 100 µM | RPMI-8226 41 µM | MDA-N 85.9 µM | SK-MEL-5 47.1 µM | PC-3 40.6 µM | MCF7 22.5 µM

O=C(OCc1ccccc1)N1CCNCCN(C(=O)OCc2ccccc2)CCNCC1
inactive: SR 86.1 µM | SK-MEL-2 20.1 µM | TK-10 91.8 µM | RXF 393 52.8 µM | OVCAR-5 32.2 µM | SNB-19 47.5 µM | HOP-92 21.1 µM | KM12 26 µM | 786-0 18.3 µM | LOX IMVI 13.2 µM | SN12C 39.4 µM | A549 63.2 µM | ACHN 50.4 µM | RPMI-8226 20.2 µM | MDA-N 15.6 µM | SK-MEL-5 13.4 µM | PC-3 25.9 µM | MCF7 17.7 µM

CC(=O)Oc1cc(OC(C)=O)c2c(c1C)CC[C@@H]1[C@@H]2CC[C@]2(C)[C@@H](OC(C)=O)CC[C@@H]12
inactive: SR 16.8 µM | M14 19.5 µM | TK-10 20 µM | RXF 393 13.1 µM | OVCAR-5 > 10 µM | SNB-19 18.6 µM | HOP-92 20.4 µM | KM12 16.6 µM | 786-0 19.8 µM | LOX IMVI 18.4 µM | SN12C 17.5 µM | A549 18.5 µM | ACHN 17.5 µM | RPMI-8226 8.15 µM | MDA-N 18.6 µM | SK-MEL-5 17.1 µM | PC-3 15.6 µM | MCF7 19.3 µM

COc1ccc(-n2c(=O)n(C)c(=O)n2-c2ccc(OC)cc2)cc1
inactive: SR > 100 µM | M14 > 100 µM | SK-MEL-2 > 100 µM | TK-10 > 100 µM | OVCAR-5 > 100 µM | SNB-19 > 100 µM | HOP-92 > 100 µM | KM12 > 100 µM | 786-0 > 100 µM | LOX IMVI 59.2 µM | SN12C > 100 µM | A549 > 100 µM | ACHN > 100 µM | RPMI-8226 > 100 µM | MDA-N > 100 µM | SK-MEL-5 > 100 µM | PC-3 > 100 µM | MCF7 > 100 µM

Cc1cccc2c1CC1(Cc3ccccc3C1=O)C2=O (configuration not stated)
inactive: SR > 100 µM | M14 > 100 µM | TK-10 > 100 µM | RXF 393 > 100 µM | OVCAR-5 > 100 µM | SNB-19 > 100 µM | HOP-92 76.9 µM | KM12 > 100 µM | 786-0 > 100 µM | LOX IMVI > 100 µM | SN12C > 100 µM | A549 > 100 µM | ACHN > 100 µM | RPMI-8226 > 100 µM | MDA-N > 100 µM | SK-MEL-5 > 100 µM | PC-3 > 100 µM | MCF7 > 100 µM
